Results as given in a melting point compilation (Tetko et al.; mined from patent text by program, amines drawn as free bases though some values may be those of a salt).

For `COc1ccc(S(=O)(=O)N2Cc3ccccc3N(C(=O)c3cccc(C(F)(F)F)c3)CC2C(=O)O)cc1` (stereo not drawn), the melting point was 105 to 110 °C.
`CCOC(=O)c1ccc(OCCc2c(CCNS(=O)(=O)Cc3ccc(Cl)c(Cl)c3)n(C(c3ccccc3)c3ccccc3)c3ccc(Cl)cc23)cc1F` showed a melting point of 83 to 85 °C.
`CCOC(=O)c1c(C(C)(C)O)nc(CO)n1Cc1ccc(-c2ccccc2-c2nnnn2C(c2ccccc2)(c2ccccc2)c2ccccc2)cc1` gave a melting point of 151 to 152 °C.
`COc1c(CC#N)c2c(c3c1OC(C)(C)C3)C(c1cccc(C(=O)NC3CCCCNC3=O)c1)=NC(C)(C)C2` (stereo not drawn) gave a melting point of 130 to 132 °C.
Compound `CSC1C(=O)Nc2ccc(C3=NNC(=O)SC3)cc21` (stereo not drawn) has a melting point of 201 to 204 °C.
With `COc1ccc(-c2cnnc(-c3ccc(C(F)(F)F)cc3F)c2N)cc1` the melting point was 215 to 216 °C.
For `CCOc1ccccc1N(C(=O)C(N)=O)c1nc(N(CC)CC)nc(N(CC)CC)n1`, the melting point was 97 to 100 °C.
With `Cc1cc(=O)c2ccc(OCCCN3CCC(NC(=O)Cc4ccccc4)CC3)cc2o1` the melting point was 172 to 173 °C.
With `COc1ccc(S(=O)(=O)Nc2ccc(Cl)cc2/C=C/c2ccncc2)cc1` the melting point was 175 to 176 °C.
In the case of `CN1C(=O)CN=C(c2ccc(O)cc2)c2cc(Cl)ccc21`, the melting point is reported as 225 to 259 °C.
`COC(=O)Oc1ccc(-c2ccc(=O)n(Cc3ccc(Cl)cc3F)c2)cc1` showed a melting point of 124 °C.
In the case of `CC(=O)c1c2cnnc-2sn1C`, the melting point is reported as 130 to 131 °C.
Work on `CCCCCS(=O)(=O)NC(=O)/C=C/c1ccc(OCCC(C)=O)cc1Oc1ncc(C(F)(F)F)cc1Cl` yielded a melting point of 180 to 181 °C.
In the case of `FC(F)(F)C(F)(F)C(F)(F)COc1ccnc(CSc2nc3cscc3[nH]2)c1`, the melting point is reported as 117 °C.
In the case of `Cc1oc(-c2ccccc2)nc1COc1cc(CO)on1`, the melting point is reported as 99 to 100 °C.
For `COC(=O)c1ccc(C(=O)OC)c(Nc2ccccc2)c1`, the melting point was 85 to 87 °C.
In the case of `Cc1c(CNC2CCCC2)[nH]c2c(C)c(NC(=O)c3ccc(OC[C@@H]4CCCO4)cc3)ccc12`, the melting point is reported as 107 to 109 °C.
With `Cc1cc(OCCN(C)C)c(C(C)C)cc1OC(=O)CCCC(=O)O` the melting point was 109 to 110 °C.
Work on `COc1ccccc1-c1ccc(C(=O)N2Cc3cccn3Cc3ccccc32)cc1` yielded a melting point of 250 to 253 °C.
With `Cc1cc(=O)n(C)c(=O)n1C` the melting point was 113 to 114 °C.
`Cn1cc(-c2ccccc2S(N)(=O)=O)cn1` showed a melting point of 183 to 186 °C.
Compound `O=C(NCCc1ccccn1)c1cnc2cc3c(cc2c1Cl)OCO3` has a melting point of 145 to 146 °C.
In the case of `Cc1cc(C#N)c(S(C)(=O)=O)cc1C(=O)O`, the melting point is reported as 248 to 249 °C.
In the case of `CCCOCCOc1ccccc1COc1ccc2c(c1)C=C(C(=O)Nc1ccc(CN(C)C3CCOCC3)cc1)CCS2(=O)=O`, the melting point is reported as 136 to 138 °C.
For `CC12CCC3c4ccc(OCc5ccccc5)cc4CCC3C1CCC2O` (stereo not drawn), the melting point was 97 to 100 °C.
`COc1nc(Cl)nc(Nc2ccc(OC(=O)C(C)(C)Br)cc2)n1` showed a melting point of 107 to 108 °C.
For `CC(=O)Nc1ccccc1N(CC(=O)OC(C)(C)C)C(=O)CNC(=O)Nc1cccc(C)c1`, the melting point was 185 °C.
Work on `CC(C)(C#N)CCCCOc1cc(-c2ccccc2)cc(-c2ccccc2)n1` yielded a melting point of 71 °C.
Compound `CCOC(=O)Cc1c(C)n(Cc2cccc(C(F)(F)F)c2)c2ccc(OC)cc12` has a melting point of 95 to 97 °C.
Compound `COC(=O)Nc1nccc(Oc2ccc3c(C(=O)Nc4cccc(C(F)(F)F)c4)cccc3c2)n1` has a melting point of 199 to 200 °C.
For `CCC(Cc1cc(C(C)(C)C)c(O)c(C(C)(C)C)c1)[N+](=O)[O-]` (stereo not drawn), the melting point was 55 to 60 °C.
`O=[N+]([O-])c1cccc(-c2coc3ccccc23)c1` showed a melting point of 86 to 86.5 °C.
`CC(=O)Oc1ccc(C=CC(=O)C=Cc2ccc(OC(C)=O)c(OC(C)=O)c2)cc1OC(C)=O` showed a melting point of 70 to 72 °C.
With `CN1CCC(c2c[nH]c3ccc(OC4CCCCC4)cc23)CC1` the melting point was 192 to 194 °C.
`CC(=O)Oc1ccccc1C(=O)Nc1cc(Cl)cc(Cl)c1` gave a melting point of 167 to 168 °C.
Compound `N#Cc1ccc(N(Cc2ccc3cc(O)ccc3c2)n2cnnc2)cc1` has a melting point of 281 to 284 °C.
`CC(C)OC(=O)Nc1ccsc1` gave a melting point of 105 to 107 °C.
With `Cc1ccc(OCc2ccccc2)c2[nH]c(-c3ccccc3)nc12` the melting point was 221 to 224 °C.
Work on `CCc1nc(SC)c(C(=O)O)n1Cc1ccc(-c2ccccc2S(=O)(=O)NC(=O)NCc2ccccc2)cc1` yielded a melting point of 164 °C.
Compound `CCCS(=O)c1cccnc1S(=O)(=O)NC(C)(C)C` (stereo not drawn) has a melting point of 138 to 140 °C.
Compound `CCn1cc(C(=O)O)c(=O)c2cn(C)nc21` has a melting point of 273 to 275 °C.
`Cc1ccccc1-c1cn(-c2ccccc2)c2ncnc(N)c12` showed a melting point of 181 to 182 °C.
In the case of `CC(C)(C(=O)c1ccccc1)C(N)=S`, the melting point is reported as 172 to 175 °C.
Compound `O=C(O)c1c[nH]c2c(-c3ccncc3)c(-c3ccc(F)cc3)nn2c1=O` has a melting point of 215 to 218 °C.
Compound `CCC1(C)SC(=NOC(=O)NC)N=C1C` (stereo not drawn) has a melting point of 115 to 117 °C.
Compound `O=C(O)c1ccccc1NCCCn1c2ccc(O)cc2c2c3c(c(-c4ccccc4Cl)cc21)C(=O)NC3=O` has a melting point of 261 to 263 °C.
`CCOC(=O)N1CCc2nc3ccccc3c(Oc3ccccc3)c2CC1` gave a melting point of 150 °C.
In the case of `Cc1[nH]c(=O)c(C#N)cc1-c1ccc(S(C)=O)cc1` (stereo not drawn), the melting point is reported as 290 to 291 °C.
Work on `COC(=O)c1cc(-c2nc(COc3ccc(C=O)cc3OC)c(C)o2)ccc1C` yielded a melting point of 136 to 137 °C.
For `COC(=O)C(C)(C)C(=O)OCOC1=C(C(=O)Nc2ccccn2)N(C)S(=O)(=O)c2ccccc21`, the melting point was 112 to 114 °C.
For `N#Cc1ccc2c(c1)ncn2-c1cccc(-c2cccnc2)c1`, the melting point was 191 to 193 °C.
For `CC(C)CC1C(=O)NCCN1Cc1ccccc1` (stereo not drawn), the melting point was 126 to 127 °C.
`COc1cccc(C(=O)c2sc3cc(OC)ccc3c2-c2ccccc2)c1` gave a melting point of 101 to 103 °C.
In the case of `O=C(Nc1ccc(Br)cn1)Nc1cccc2c1C1CC3(CCN1C2=O)SCCS3` (stereo not drawn), the melting point is reported as 240 °C.
For `CC(=O)Nc1cccc(Sc2c(Cc3cccc4ccccc34)sc3c2c(=O)n(C)c(=O)n3CC(C)C)c1`, the melting point was 173 to 174 °C.
Work on `COc1ccc([C@@H]2OC(=O)N[C@@H]2Cc2ccc(C(F)(F)F)cc2)cc1` (racemic) yielded a melting point of 164 to 165 °C.
`CCc1c(OC)cc2c(c1O)C(=O)C[C@H]1CCN(C)C[C@@H]21` (relative stereo) gave a melting point of 221 to 223 °C.
Work on `Cc1nnc(N2C(=O)C(O)=C(C(=O)c3ccc(C(C)C)cc3)C2c2ccc(OC(F)(F)F)cc2)s1` (stereo not drawn) yielded a melting point of 260 °C.
In the case of `CCOC(=O)c1cn(-c2c(O)cccc2O)cn1`, the melting point is reported as 229 to 230 °C.
`CNC(=O)c1ccc(N2CC(CNC(C)=S)OC2=O)cc1F` (stereo not drawn) gave a melting point of 176 to 177 °C.
With `CC(C)OC(=O)C1(F)C(=O)NC(=O)NC1O/N=C\c1ccco1` (stereo not drawn) the melting point was 131 to 134 °C.
With `O=C(NCc1ccccc1C(=O)O)c1cccc(/C=C/c2nc(C3CCC3)cs2)c1` the melting point was 185 to 187 °C.
Compound `O=C(O)[C@H]1O[C@@H]1C1CCCCC1` has a melting point of 64 to 65 °C.
`OCCON=Cc1cnc2ccccc2c1` gave a melting point of 129 °C.
Work on `ClCCOc1cccc2[nH]ccc12` yielded a melting point of 60 °C.
Work on `CN(C)C(=O)c1c(C(=O)CBr)c2cc(Cl)ccc2n1C(=O)OC(C)(C)C` yielded a melting point of 110 to 115 °C.
In the case of `CC(C)(C)NC(=O)c1nn(-c2ccc(F)cc2F)c2c1[C@@H]1CC[C@@]2(C)C1(C)C`, the melting point is reported as 161 to 163 °C.
For `CC(=O)NC[C@H]1CN(c2ccc(C3CCNCC3)c(F)c2)C(=O)O1`, the melting point was 109 to 110 °C.
Compound `Cn1c(COc2ccc(CC3SC(=O)NC3=O)cc2)nc2ccc(Oc3ccc(NC(=S)NCc4ccccc4)cc3)cc21` (stereo not drawn) has a melting point of 175 to 177 °C.
With `COc1ccc2cc(-c3cn([C@H]4CN5CCC4CC5)nn3)ccc2c1` the melting point was 186 °C.
In the case of `CCC(Cl)C(=O)NC(C)=O` (stereo not drawn), the melting point is reported as 51 to 53 °C.
For `COC(=O)c1ccc(OCC(O)CNC(C)(C)C)cc1` (stereo not drawn), the melting point was 88 to 89 °C.
For `CN1CCN(C(=O)c2ccc3cc(-c4csc(N(C)S(=O)(=O)c5ccccc5)n4)c(=O)[nH]c3c2)CC1`, the melting point was 242 to 247 °C.
`COc1ccc(NC(=O)C(C)(C)CCCOc2cc(C)ccc2C)cc1OC` showed a melting point of 110 to 111 °C.
`CC1CCC(NS(N)(=O)=O)CC1` (stereo not drawn) showed a melting point of 109 to 110 °C.
`O=C(O)CC1(O)CCC(N2CCC(Nc3ccncc3)CC2)CC1` (stereo not drawn) gave a melting point of 261 °C.
Work on `Brc1cc(C=Cc2scc3c2OCCO3)ccn1` yielded a melting point of 127 to 129 °C.
Work on `N#CC1=C(C2CCN(C(=O)c3ccccc3)CC2)Nc2n[nH]cc2C1c1cccc(C#N)c1Br` (stereo not drawn) yielded a melting point of over 280 °C.
`CCN(CC)CCOc1ccc(C(O)(CC)c2cc(C)ccc2C)cc1` (stereo not drawn) showed a melting point of 89 to 90 °C.
`CCN(CC)c1ccc2c(c1)Oc1cc(OC)c(N(c3ccccc3)c3ccccc3)cc1C2c1ccccc1C(=O)OC` (stereo not drawn) showed a melting point of 117 to 119 °C.
Compound `Cc1nn(C(C)(C)C)c(N)c1C#N` has a melting point of 156 to 157 °C.
Compound `COC1(C)Oc2cccc(O)c2O1` (stereo not drawn) has a melting point of 106 to 109 °C.
Work on `CCOC(=O)C(Br)C(=O)Nc1ccccc1` (racemic) yielded a melting point of 90 °C.
In the case of `Cn1c(CN2C(=O)C3(COc4cc5c(cc43)CCO5)c3ccccc32)nc2ccccc21` (stereo not drawn), the melting point is reported as 244 to 246 °C.
In the case of `CCN(Cc1ccc(Cl)nc1)C(=NC)C(=Cc1ccco1)[N+](=O)[O-]`, the melting point is reported as 155 to 156 °C.
Compound `COc1ccc(N2CCC(=O)N(c3ccc(F)cc3)CC2)c(-c2ccc(N(C)C)cc2)n1` has a melting point of 130 to 139 °C.
For `O=C1OC(=O)c2cc3c(cc21)OCO3`, the melting point was 189 to 191 °C.
In the case of `O=C(Nc1ccccc1C(F)(F)F)c1c(O)c2ccccc2oc1=O`, the melting point is reported as 157 to 159 °C.
`CCOc1ccc(CC(C)=O)cc1S(N)(=O)=O` gave a melting point of 158 to 159 °C.
Compound `CN(CC(=O)OC(C)(C)C)S(=O)(=O)c1ccc2c(Cl)cnc(NC(=N)N)c2c1` has a melting point of 84 °C.
In the case of `COc1ccc(Sc2sccc2C=O)cc1`, the melting point is reported as 58 to 60 °C.
Compound `CCCCc1nc(CO)c(Cl)n1Cc1ccccc1` has a melting point of 78 to 80 °C.
Work on `CC(C)c1ncc(CCCOc2nn(C)cc2CC(=O)O)c(Oc2ccc(Cl)cc2Cl)n1` yielded a melting point of 107 to 108 °C.
`N#Cc1nn(-c2c(Cl)cc(C(F)(F)F)cc2Cl)c(N)c1SC(F)(F)C(F)(F)F` gave a melting point of 134 to 136 °C.
`Cc1nc2ncnn2c(O)c1Br` showed a melting point of 269 °C.
With `CC(C)(C)OC(=O)NC12CC3CC(C1)CC(OS(C)(=O)=O)(C3)C2` the melting point was 100 to 102 °C.
`CCCc1nn(C)c2c(=O)[nH]c(-c3cc(S(=O)(=O)Cl)cc4c3OCC4)nc12` gave a melting point of 221 to 222 °C.
In the case of `N#Cc1c(Cl)c2cc(F)ccc2n(Cc2ccccc2)c1=O`, the melting point is reported as 228 °C.
